Data as given in article PMC3691235, “Discovery of a Novel Dual Fungal CYP51/Human 5-Lipoxygenase Inhibitor: Implications for Anti-Fungal Therapy” (PLoS ONE, 2013).
Like-named read-outs stand apart in the source and are kept apart here.

Tests used:
5-LOX = target: T1, 5-LOX (Homo sapiens, UniProt P09917); assay: Pseudoperoxidase activity assay; assay type: biochemical; conditions: 10 µM inhibitor, 10 µM 13-HPODE, positive = loss of greater than 40% of product absorption at 234 nm
T1 construct: made in house
T1 sequence (P09917 1-674): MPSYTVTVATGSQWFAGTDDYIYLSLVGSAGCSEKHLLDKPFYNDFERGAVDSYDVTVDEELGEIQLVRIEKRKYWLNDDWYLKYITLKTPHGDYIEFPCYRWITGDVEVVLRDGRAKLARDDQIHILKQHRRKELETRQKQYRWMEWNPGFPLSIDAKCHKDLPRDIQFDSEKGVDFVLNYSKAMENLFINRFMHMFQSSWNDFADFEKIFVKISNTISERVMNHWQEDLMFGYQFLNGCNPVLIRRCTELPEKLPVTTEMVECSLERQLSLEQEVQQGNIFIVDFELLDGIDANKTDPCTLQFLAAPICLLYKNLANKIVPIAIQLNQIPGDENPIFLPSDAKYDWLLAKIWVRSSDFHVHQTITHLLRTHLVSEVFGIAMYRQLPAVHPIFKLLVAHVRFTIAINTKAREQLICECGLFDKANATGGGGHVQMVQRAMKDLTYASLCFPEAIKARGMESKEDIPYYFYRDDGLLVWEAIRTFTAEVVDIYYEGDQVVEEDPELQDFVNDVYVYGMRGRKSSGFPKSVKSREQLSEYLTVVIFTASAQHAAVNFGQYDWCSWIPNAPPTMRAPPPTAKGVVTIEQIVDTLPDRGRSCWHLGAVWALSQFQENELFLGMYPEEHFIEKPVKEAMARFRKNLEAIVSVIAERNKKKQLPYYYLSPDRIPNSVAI
Experimental: The reductive properties of the inhibitors were determined by monitoring the pseudoperoxidase activity of lipoxygenase in the presence of the inhibitor and 13-(S)-hydroperoxyoctadecadienoic acid (13-HPODE). Activity is monitored by direct measurement of the product degradation following the decrease of absorbance at 234 nm using a Perkin-Elmer Lambda 40 UV/Vis spectrometer (50 mM Sodium Phosphate (pH 7.4), 0.3 mM CaCl2, 0.1 mM EDTA, 0.01% Triton X100, 10 µM 13-HPODE). All reactions were performed in 2 mL of buffer and constantly stirred with a rotating stir bar (23°C). Reaction was initiated by addition of 10 µM inhibitor (a 1 to 1 ratio to 13-HPODE), and a positive result for activity reflected a loss of greater than 40% of product absorption at 234 nm.

human COX-2 = target: T2, human COX-2 (Homo sapiens, UniProt P35354); assay: Cyclooxygenase assay (oxygen electrode), COX-2; assay type: biochemical; conditions: 100 µM AA, pH 8.0, 37°C, oxygen consumption
T2 construct: purchased Cayman chemical 60122
T2 sequence (P35354 18-604): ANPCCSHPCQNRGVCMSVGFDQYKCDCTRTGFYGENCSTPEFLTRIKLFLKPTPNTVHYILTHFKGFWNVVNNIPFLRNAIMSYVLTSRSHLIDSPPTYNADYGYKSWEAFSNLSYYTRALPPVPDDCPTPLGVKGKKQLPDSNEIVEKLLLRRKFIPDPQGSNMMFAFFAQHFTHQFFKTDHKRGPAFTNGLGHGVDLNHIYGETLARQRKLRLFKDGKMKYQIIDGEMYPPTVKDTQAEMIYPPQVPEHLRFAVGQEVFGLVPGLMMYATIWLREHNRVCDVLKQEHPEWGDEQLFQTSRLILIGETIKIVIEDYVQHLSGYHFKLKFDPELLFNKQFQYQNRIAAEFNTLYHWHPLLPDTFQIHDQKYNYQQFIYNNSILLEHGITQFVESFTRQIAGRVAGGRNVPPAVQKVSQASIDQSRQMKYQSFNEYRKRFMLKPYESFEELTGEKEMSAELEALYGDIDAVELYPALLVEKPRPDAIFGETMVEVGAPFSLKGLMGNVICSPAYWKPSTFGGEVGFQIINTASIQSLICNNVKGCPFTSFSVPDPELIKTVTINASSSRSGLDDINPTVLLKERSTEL
Experimental: Ovine COX-1 (Cat. No. 60100) and human COX-2 (Cat. No. 60122) were purchased from Cayman chemical. Approximately 2 µg of either COX-1 or COX-2 were added to buffer containing 100 µM AA, 0.1 M Tris-HCl buffer (pH 8.0), 5 mM EDTA, 2 mM phenol and 1 µM hematin at 37°C. Data was collected using a Hansatech DW1 oxygen electrode chamber, as described before. Inhibitor or vehicle were mixed with the respective COX in buffer within the electrode cell, the reaction was initiated by the addition of AA, followed by monitoring of rate of oxygen consumption. Ibuprofen, aspirin and indomethacin, and the carrier solvent, DMSO, were used as positive and negative controls, respectively.

CaCYP51 = target: T3, CaCYP51 (Candida albicans, UniProt P10613); assay: CYP51 reconstitution assay, CaCYP51; assay type: biochemical
T3 construct: made in house; host or cells: E. coli
T3 sequence (P10613 whole entry): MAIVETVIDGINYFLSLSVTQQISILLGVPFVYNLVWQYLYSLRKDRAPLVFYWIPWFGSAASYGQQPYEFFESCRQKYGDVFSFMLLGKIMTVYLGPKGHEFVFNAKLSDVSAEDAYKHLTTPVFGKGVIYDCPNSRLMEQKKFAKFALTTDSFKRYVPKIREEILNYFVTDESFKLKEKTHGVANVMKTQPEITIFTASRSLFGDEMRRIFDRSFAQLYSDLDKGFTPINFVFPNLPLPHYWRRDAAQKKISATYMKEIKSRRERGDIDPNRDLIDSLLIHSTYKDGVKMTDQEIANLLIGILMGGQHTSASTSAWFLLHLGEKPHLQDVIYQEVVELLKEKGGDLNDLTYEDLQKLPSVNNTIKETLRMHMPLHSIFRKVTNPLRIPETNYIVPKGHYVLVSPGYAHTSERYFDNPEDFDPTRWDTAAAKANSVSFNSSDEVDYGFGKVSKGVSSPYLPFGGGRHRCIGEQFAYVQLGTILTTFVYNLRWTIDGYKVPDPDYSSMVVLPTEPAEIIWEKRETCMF
Experimental: (§1) Azole antifungal agents were added in 5 µL DMSO followed by incubation for 5 minutes at 37°C prior to assay initiation with 4 mM β-NADPHNa4, with shaking for a further 10 minutes at 37°C. Sterol metabolites were recovered by extraction with ethyl acetate followed by derivatization with N,O-bis(trimethylsilyl)trifluoroacetamide and […] prior to analysis by gas chromatography mass spectrometry.

HsCYP51 = target: T4, HsCYP51 (Homo sapiens, UniProt Q16850); assay: CYP51 reconstitution assay, HsCYP51; assay type: biochemical; conditions: for IC50: 0.3 µM HsCYP51, 50 µM lanosterol
T4 construct: made in house; host or cells: E. coli
T4 sequence (Q16850 1-509): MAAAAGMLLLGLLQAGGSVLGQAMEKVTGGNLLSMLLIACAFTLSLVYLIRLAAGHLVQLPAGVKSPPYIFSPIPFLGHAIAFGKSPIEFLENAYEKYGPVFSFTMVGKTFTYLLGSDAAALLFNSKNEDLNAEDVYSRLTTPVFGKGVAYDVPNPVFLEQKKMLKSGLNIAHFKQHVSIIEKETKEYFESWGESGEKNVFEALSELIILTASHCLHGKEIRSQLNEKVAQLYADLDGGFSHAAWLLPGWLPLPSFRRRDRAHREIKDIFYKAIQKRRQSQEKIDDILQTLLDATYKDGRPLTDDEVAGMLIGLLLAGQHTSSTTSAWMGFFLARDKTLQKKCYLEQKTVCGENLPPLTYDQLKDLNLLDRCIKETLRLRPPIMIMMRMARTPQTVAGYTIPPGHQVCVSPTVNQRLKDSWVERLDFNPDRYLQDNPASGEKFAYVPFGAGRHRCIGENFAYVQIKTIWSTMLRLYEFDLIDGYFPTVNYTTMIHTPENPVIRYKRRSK
Experimental: as §1

[1] = target: T5, Human leukocyte 5-lipoxygenase (Homo sapiens, UniProt P09917); conditions: [13], cited from earlier work
T5 construct: made in house
T5 sequence (P09917 1-674): T1 sequence (P09917 1-674)

Row | SMILES | Reductive activity (pseudoperoxidase activity) (5-LOX) | IC50 (human COX-2) [µM] | IC50 (HsCYP51) [µM] | further results
1 | Cc1cc(C2CCCCC2)n(O)c(=O)c1 [ciclopirox, reference compound] |  | > 150 |  | 
2 | CC(=O)N1CCN(c2ccc(OCC3COC(Cn4ccnc4)(c4ccc(Cl)cc4Cl)O3)cc2)CC1 (centres unmarked) [ketoconazole, reference compound] | No | > 150 | ~5 | IC50 ([1]; read-out: 5-LOX IC50, ref [12]): > 50 µM; IC50 (CaCYP51): ~0.5 µM; HsCYP51 activity, in words (HsCYP51; at 95 µM compound): inactivated
3 | CC[C@](O)(c1nnc(NCc2ccc3c(-c4ccc(F)cc4)cc(=O)oc3c2)o1)C(F)(F)F [setileuton, reference compound] | non-reductive |  |  | IC50 ([1]; ref [2], read-out: 5-LOX IC50, literature value): 0.045 ± 0.01 µM; Reductive activity (pseudoperoxidase activity) (5-LOX; listed as Setileuton): No

Now from value to compound, other results behind:

Row | Reductive activity (pseudoperoxidase activity) (5-LOX) | IC50 (human COX-2) [µM] | SMILES | IC50 (HsCYP51) [µM] | further results
4 | Yes | > 150 | CC(C)(C)OC(=O)N1CCN(c2ccc(NCc3ccc(-c4ccc(C#N)cc4)o3)cc2)CC1 [Compound 1] |  | 
5 |  | > 150 | CC(=O)N1CCN(c2ccc(NCc3ccc(-c4cccc(Cl)c4)o3)cc2)CC1 [Compound 13] |  | 
6 | reductive inhibitor and Yes | > 150 | CC(=O)N1CCN(c2ccc(NCC3COC(Cn4ccnc4)(c4ccc(Cl)cc4Cl)O3)cc2)CC1 (centres unmarked) [ketaminazole (16), ketaminazole] | ~16 | IC50 (CaCYP51; 1 µM CaCYP51, 50 µM lanosterol, read-out: CaCYP51 IC50): ~0.9 µM; CYP51 activity retained (CaCYP51; CaCYP51, at 4 µM compound): ~15%; remaining activity at 155 µM (HsCYP51; HsCYP51, at 155 µM compound): ~30%; fold higher IC50 over ketoconazole with HsCYP51 (HsCYP51; ratio of IC50 values): 3 fold
